Source: the supplement of paper PMC10307832

Experiments:
Test in all cases: relative viability (nuclei count vs DMSO), 5 days (fraction); higher = more cells survive
KIN001-266 + Tozasertib = compound: CCN1CCC(CC1)N2C=C(N=N2)CNC3=CC4=C(C(=CN=C4C(=C3)Cl)C#N)NC5=CC(=C(C=C5)F)Cl [KIN001-266] + Cc1cc(Nc2cc(N3CCN(C)CC3)nc(Sc3ccc(NC(=O)C4CC4)cc3)n2)n[nH]1 [Tozasertib] (partner 0.1 µM)
How it was run: (§1)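 Relative viability divides the nuclei count in treated wells by that in vehicle wells. Lung cancer cell lines were seeded in 1536-well plates, dosed by pin tool the next day, and fixed and stained after 5 days in one step with final 0.05% Triton X-100, 1% formaldehyde and 1 ug/ml Hoechst. Dosing was a single drug or a fixed anchor-drug dose plus five library-drug doses (not always all listed) in √10 steps, and values are medians of duplicate plates imaged at 4×.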

KIN001-266 + Phenformin = compound: CCN1CCC(CC1)N2C=C(N=N2)CNC3=CC4=C(C(=CN=C4C(=C3)Cl)C#N)NC5=CC(=C(C=C5)F)Cl [KIN001-266] + N=C(N)NC(=N)NCCc1ccccc1 [Phenformin] (partner 250 µM)
How it was run: as §1

KIN001-266 + Navitoclax = compound: CCN1CCC(CC1)N2C=C(N=N2)CNC3=CC4=C(C(=CN=C4C(=C3)Cl)C#N)NC5=CC(=C(C=C5)F)Cl [KIN001-266] + CC1(C)CCC(c2ccc(Cl)cc2)=C(CN2CCN(c3ccc(C(=O)NS(=O)(=O)c4ccc(N[C@H](CCN5CCOCC5)CSc5ccccc5)c(S(=O)(=O)C(F)(F)F)c4)cc3)CC2)C1 [Navitoclax] (partner 0.5 µM)
How it was run: as §1

KIN001-266 = compound: CCN1CCC(CC1)N2C=C(N=N2)CNC3=CC4=C(C(=CN=C4C(=C3)Cl)C#N)NC5=CC(=C(C=C5)F)Cl [KIN001-266]
How it was run: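 Acceptance criteria were a control CV below 25% and at least one doubling per plate. Lung cancer cell lines in 1536-well plates got five library-drug doses (not always all listed) √10 apart by pinning and were left 5 days with no medium change. Viability divides treated-well nuclei by vehicle-well nuclei and is the median across plates. Nuclei were counted by MetaXpress from 4× Hoechst images.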

| Cell Line | relative viability (KIN001-266 + Tozasertib; first compound 0.08 µM) | relative viability (KIN001-266 + Tozasertib; first compound 0.253 µM) | relative viability (KIN001-266 + Tozasertib; first compound 0.8 µM) | relative viability (KIN001-266 + Tozasertib; first compound 2.53 µM) | relative viability (KIN001-266 + Tozasertib; first compound 8 µM) | relative viability (KIN001-266 + Phenformin; first compound 0.08 µM) | relative viability (KIN001-266 + Phenformin; first compound 0.253 µM) | relative viability (KIN001-266 + Phenformin; first compound 0.8 µM) | relative viability (KIN001-266 + Phenformin; first compound 2.53 µM) | relative viability (KIN001-266 + Phenformin; first compound 8 µM) | relative viability (KIN001-266 + Navitoclax; first compound 0.08 µM) | relative viability (KIN001-266 + Navitoclax; first compound 0.253 µM) | relative viability (KIN001-266 + Navitoclax; first compound 0.8 µM) | relative viability (KIN001-266 + Navitoclax; first compound 2.53 µM) | relative viability (KIN001-266 + Navitoclax; first compound 8 µM) | relative viability (KIN001-266; 0.08 µM) | relative viability (KIN001-266; 0.253 µM) | relative viability (KIN001-266; 0.8 µM) | relative viability (KIN001-266; 2.53 µM) | relative viability (KIN001-266; 8 µM) |
| --- | --- | --- | --- | --- | --- | --- | --- | --- | --- | --- | --- | --- | --- | --- | --- | --- | --- | --- | --- | --- |
| HCC-44 | 0.886 | 0.917 | 0.976 | 0.987 | 0.865 | 0.229 | 0.185 | 0.197 | 0.26 | 0.3 | 1.03 | 1.08 | 0.946 | 1.06 | 1.03 | 0.967 | 0.994 | 0.983 | 0.968 | 1.08 |
| HCC-78 | 0.404 | 0.444 |  | 0.373 | 0.317 | 0.714 | 0.664 |  | 0.656 | 0.806 | 0.812 | 0.807 | 0.758 | 0.88 | 0.775 | 0.964 | 0.998 | 0.913 | 0.99 | 0.956 |
| HCC-366 | 0.156 | 0.286 | 0.0999 | 0.127 | 0.111 | 0.657 | 0.644 | 0.596 | 0.567 | 0.509 | 0.923 | 1.05 | 1.07 | 1.11 | 1.12 | 1.02 | 1.01 | 0.992 | 1.01 | 0.969 |
| HCC-827 | 0.442 | 0.432 | 0.41 | 0.359 | 0.389 | 0.439 | 0.404 | 0.189 | 0.318 | 0.286 | 1.02 | 1.08 |  | 0.971 | 0.981 | 1.03 | 1.05 | 0.715 | 1.08 | 0.98 |
| HOP-62 | 0.414 | 0.381 | 0.384 | 0.328 | 0.319 | 0.683 | 0.694 | 0.688 | 0.734 | 0.629 | 1.11 | 1.02 | 1.06 | 1.05 | 0.95 | 1.01 | 1.05 | 1.02 | 1.02 | 0.995 |
| IA-LM |  |  |  |  |  |  |  |  |  |  | 0.948 | 0.619 | 0.731 | 0.935 | 0.561 | 0.95 | 0.956 | 0.888 | 1 | 0.931 |
| LC-2-ad | 0.451 | 0.409 | 0.516 | 0.444 | 0.447 | 0.622 | 0.647 | 0.629 | 0.637 | 0.576 | 0.763 | 0.429 | 0.473 | 0.415 | 0.479 | 1.05 | 0.997 | 0.947 | 1.04 | 0.962 |
| LCLC-97TM1 | 0.196 | 0.209 | 0.186 | 0.171 | 0.223 | 0.414 | 0.442 | 0.413 | 0.41 | 0.407 | 0.506 | 0.365 | 0.247 | 0.398 | 0.333 | 0.942 | 0.853 | 0.917 | 0.866 | 0.906 |
| LCLC-103H | 0.492 | 0.494 | 0.413 | 0.52 | 0.504 | 0.389 | 0.28 | 0.285 | 0.361 | 0.332 |  |  |  |  |  | 1.08 | 1.04 | 1.08 | 1.06 | 1.02 |
| NCI-H358 | 0.107 | 0.129 | 0.132 | 0.0982 | 0.0945 | 0.361 | 0.367 | 0.343 | 0.277 | 0.251 |  |  |  |  |  | 0.893 | 0.98 | 0.917 | 0.828 | 0.45 |
| NCI-H522 | 0.562 | 0.498 | 0.566 | 0.502 | 0.594 | 0.656 | 0.641 | 0.653 | 0.629 | 0.591 |  |  |  |  |  | 1.13 | 0.937 | 1.05 | 0.925 | 0.914 |
| NCI-H650 | 0.791 | 0.713 | 0.74 | 0.732 | 0.672 | 0.499 | 0.503 | 0.495 | 0.463 | 0.507 |  |  |  |  |  | 1.03 | 0.972 | 1.13 | 0.955 | 1.15 |
| NCI-H661 | 0.364 | 0.377 | 0.373 | 0.353 | 0.353 | 0.297 | 0.278 | 0.284 | 0.263 | 0.258 |  |  |  |  |  | 0.956 | 0.997 | 1.01 | 0.958 | 1.01 |
| NCI-H1299 |  |  |  |  |  |  |  |  |  |  | 1.04 | 1.04 | 0.995 | 1.01 | 0.897 | 0.987 | 0.996 | 1 | 0.928 | 0.869 |
| NCI-H1563 |  |  |  |  |  | 0.663 | 0.694 | 0.669 | 0.583 | 0.62 |  |  |  |  |  | 0.958 | 1 | 1.02 | 1.04 | 0.972 |
| NCI-H1648 | 0.711 | 0.513 | 0.436 | 0.558 | 0.485 |  |  |  |  |  |  |  |  |  |  | 0.853 | 0.859 | 0.893 | 0.823 | 0.966 |
| NCI-H1703 |  |  |  |  |  |  |  |  |  |  | 0.987 | 1.08 | 1.13 | 0.875 | 0.632 | 1.06 | 0.873 | 0.954 | 0.789 | 0.806 |
| NCI-H1792 |  |  |  |  |  | 0.26 | 0.223 | 0.17 | 0.123 | 0.265 | 0.601 | 0.627 | 0.581 | 0.652 | 0.661 | 0.987 | 0.919 | 0.856 | 0.908 | 1.01 |
| NCI-H2342 | 0.524 | 0.506 | 0.584 | 0.627 | 0.414 | 0.638 | 0.572 | 0.537 | 0.531 | 0.642 |  |  |  |  |  | 1.02 | 0.971 | 0.958 | 0.965 | 1.1 |
| SW 900 | 0.741 | 0.584 | 0.567 | 0.482 | 0.491 | 0.617 | 0.564 | 0.537 | 0.564 | 0.357 |  |  |  |  |  | 1.02 | 0.873 | 0.777 | 0.848 | 0.624 |
